Tests used:
Cbl-b [1] = test: Cbl-b protein by immunoblot after JAK or AKT inhibitor pretreatment and IL-15/IL-2 activation of primary NK cells; type: cell-based, human
Procedure: FIGS. 2A-2E depict the results of a study showing that JAK-STAT and AKT pathways mediate upregulation of Cbl-b in NK cells. (FIG. 2A) Primary human NK cells were pretreated with the JAK3 inhibitor CP-690550 and the JAK1/2 inhibitor AZD1480 at various concentrations for 90 min prior to a 24 h activation by IL15 (10 ng/ml). NK cells were then harvested for quantification of Cbl-b protein expression by immunoblot analysis. Data are representative of 6 donors performed in a similar fashion. Densitometric quantification assessing the ratio of the Cbl-b protein to β-actin protein levels for 6 donors is summarized in (FIG. 2B) and (FIG. 2C). […] Data are representative of 5 donors performed in a similar fashion. Densitometric quantification assessing the ratio of the Cbl-b protein levels to β-actin protein levels for 5 donors is summarized in (FIG. 2E). *P<0.05, **P<0.01, ***P<0.001 by One-way ANOVA or Student's two-tailed paired t-test. Data are presented as mean±SEM.
(§1) Immunoblotting. Cells were harvested and suspended in RIPA lysis buffer (Thermo Fisher Scientific) on ice for 20 minutes. Equal amount of protein was resolved by 5-15% Criterion TGX gel (Bio-Rad) and then transferred onto a Nitrocellulose (NC) or PVDF membrane (Thermo Fisher Scientific). The membrane was incubated with a primary antibody at 4° C. overnight and an IRDye secondary antibody (Li-COR Biosciences) for 1 hour at room temperature. The immunoblots were visualized with Odyssey CLx Imager (Li-COR Biosciences). Densitometric analysis was performed to quantify intensity of gel bands with Image J (National Institutes of Health).
(§2) Since IL-15 utilizes select JAK-STAT proteins to initiate cellular activation, we pretreated primary NK cells with the JAK3 inhibitor CP-690550 (22) or the JAK1/2 inhibitor AZD1480 (23) in increasing concentrations prior to IL-15 stimulation then Cbl-b expression level was evaluated. […] As K562 cells were also able to induce expression of Cbl-b in primary human NK cells (FIG. 1B), we repeated the inhibitor experiments under the K562 cell stimulation.

Cbl-b [2] = test: Cbl-b protein by immunoblot after inhibitor pretreatment and K562 co-culture of primary NK cells; type: cell-based, human; conditions: 10 uM, 90 min pretreatment, 24 h co-culture with K562 (E/T=10:1), vs vehicle control
Procedure: FIG. 7A Primary NK cells were pretreated with AZD1480 (10 uM), CP-690550 (10 uM) or Afuresertib (10 uM) for 90 min prior to a 24 h cocultured with K562 cells (E/T=10:1). The immunoblot data are representative of 3 donors in a similar fashion. Densitometric quantification assessing the ratio of Cbl-b protein levels to β-actin protein levels for 3 donors is summarized in FIG. 7B. *P<0.05, **P<0.01; ns, not significant. Data are presented as mean±SEM.
as §1, §2

Cbl-b [3] = test: Cbl-b protein by immunoblot after stimulation of primary human NK cells with cytokines or activating antibody; type: cell-based; conditions: primary human NK cells, 24 h cytokine stimulation, compared to resting NK cells without cytokines
Procedure: (FIG. 1B) Enriched primary human NK cells were co-cultured with the K562 myeloid leukemia cell line (E/T ratio=10:1) for 24 h followed by immunoblot analysis. Summary data are from three independent experiments. (FIG. 1C) Primary human NK cells were treated with different concentrations of IL-15 for 24 h followed by immunoblot analysis (n=5 donors). (FIG. 1D) Equal numbers of purified CD56^+ human NK cells, CD56^bright NK cells and CD56^dim NK cells were sorted from peripheral blood mononuclear cells isolated by Ficoll, cultured and stimulated with IL-15 (20 ng/ml for 24 h) followed by immunoblot analysis. The data are representative of three independent experiments. Med, medium only; *P<0.05, **P<0.01 by two-tailed unpaired t-test or One-way ANOVA; ns, not significant. Data are presented as mean±SEM.
FIG. 6A Enriched primary human NK cells were cocultured with Molm-13 or MV4-11 leukemia cell lines (E/T ratio=10:1) for 24 h prior to assessment of Cbl-b by immunoblot analysis. […] FIG. 6B Enriched primary human NK cells were cultured overnight with an anti-NKG2D activating antibody (clone 1D11) (10 μg/ml) or mouse IgG (10 μg/ml) as control prior to assessment of Cbl-b by immunoblot analysis. […] Data are shown summarizes four independent experiments. […] Data are shown summarizes five independent experiments. FIG. 6E The expression of Cbl-b was assessed by qRT-PCR after primary human NK cells were incubated with K562 cells (E/T ratio=10:1) for 24 h. Data are shown summarizes five independent experiments. *P<0.05, **P<0.01, compared to the shortest time point. Data are presented as mean±SEM.
as §1
We assessed the expression of Cbl-b protein in primary human NK cells enriched from the blood of healthy donors in response to 24-hour stimulation by different cytokines. […] Since certain tumor cells can trigger NK cell activation, we co-cultured NK cells for 24 h with different tumor cell lines in order to assess this effect on the expression of Cbl-b.

granzyme B = test: Granzyme B protein in supernatants by ELISA; type: cell-based, human
Procedure: FIGS. 3A-3E depict the results of a study showing that downregulation of Cbl-b enhances the cytotoxicity of primary human NK cells. (FIGS. 3A and 3B) Primary human NK cells transduced with Cbl-b siRNA or Scr siRNA for 24 h were stimulated without (FIG. 3A) or with (FIG. 3B) a low concentration of IL-15 (2 ng/ml) for 16 h, then co-cultured with ^51Cr labeled Molm-13, MV4-11 or EOL-1 leukemia cell lines for 4 h, followed by quantification of specific tumor cell lysis. Each experiment was repeated with 6 different normal donors. (FIG. 3C) qRT-PCR was performed to quantify the granzyme B (GZMB) mRNA levels (n=8 donors) in siRNA- and Scr siRNA-transduced primary human NK cells incubated without or with IL-15 (10 ng/ml) for 16 h. (FIG. 3D) The concentration of the granzyme B protein in the supernatants of Cbl-b siRNA- and Scr siRNA-transduced primary human NK cells incubated without (688.1 pg/ml vs 525.4 pg/ml; P=0.0232) or with IL-15 (10 ng/ml) for 24 h (8789 pg/ml vs 3397 pg/ml; P=0.0232) was measured by ELISA (n=8 donors). (FIG. 3E) The level of granzyme B protein in Cbl-b siRNA- and Scr siRNA-transduced primary human NK cells incubated without or with IL-15 (10 ng/ml) for 24 h was measured by immunoblot analysis. The data are representative of three experiments. Scr-scrambled; *P<0.05, **P<0.01, ***P<0.001, ****P<0.0001 by One-way or Two-way ANOVA; ns, not significant. Data presented as mean±SEM.
(§3) ELISA. Primary NK cells were plated in an equivalent number of 100,000 cells/well in a 96-well plate in RPMI and supplemented with 10% FBS. Cells were treated with recombinant human IL-15 (10 ng/ml) for 24 h, and cell-free culture supernatant was collected and frozen at −80° C. for later use. IFN-γ concentration was measured by ELISA using anti-IFN-γ antibody from Thermo Fisher Scientific. Granzyme B concentration was measured by ELISA kit purchased from R&D.
Both groups were next incubated without or with IL-15 and co-cultured with ^51Cr labeled MV4-11, Molm-13, or EOL-1 leukemia cell lines, followed by assessment of specific lysis measured after 4 h of co-culture.

IFN-γ [4] = test: Intracellular IFN-γ flow cytometry of siRNA-transduced NK cells; type: cell-based, human; conditions: IL-15 (10 ng/ml) 24 h, n=5 donors
Procedure: (§4) FIGS. 4A-4D depict the results of a study showing that downregulation of Cbl-b increases IFN-γ secretion in IL-15-activated primary human NK cells. (FIG. 4A) RNAseq was conducted using primary human NK cells transduced with either Cbl-b siRNA or Scr siRNA without or with incubation in IL-15 (10 ng/ml) for 16 h (4 donors for each group). […] (FIG. 4B) qRT-PCR was performed to quantify the mRNA levels of IFN-γ (n=6 donors) after IL-15 (10 ng/ml) 6 h stimulation. (FIG. 4C) The percentage of intracellular IFN-γ+ cells in un-transduced NK cells or those transduced with Cbl-b siRNA or Scr siRNA, each activated with IL-15 (10 ng/ml) for 24 h (11.5% vs 4.338%; P=0.0008; n=5 donors). (FIG. 4D) Supernatants were collected after IL-15 (10 ng/ml) for 24 h and IFN-γ concentrations measured by ELISA (18115 pg/ml vs 882.5 pg/ml; P=0.0099; n=7 donors). Scr-scrambled; *P<0.05, **P<0.01, ***P<0.001 by Student's two-tailed paired t-test or One-way ANOVA; ns, not significant. Data presented as mean±SEM.
FIGS. 9B-9D show intracellular flow cytometric analysis of CD56+ primary human NK cells transduced with Scr siRNA or transduced with Cbl-b siRNA, incubated with IL-18 (10 ng/ml), IL-12 (10 ng/ml) or IL-18 (10 ng/ml) plus IL-12 (10 ng/ml) for 24 h. Scr, scrambled; *P<0.05, ns, not significant. Data are presented as mean±SEM.
Flow cytometry. To determine protein cell surface expression via flow cytometry, cells were stained with monoclonal antibodies at room temperature for 20 minutes and washed with FACS buffer prior to analysis using a Fortessa X-20 flow cytometer (BD Biosciences). For IFN-γ intracellular flow cytometric analysis, […] GolgiPlug (BD Biosciences) was added for 4 h before cell harvest; cells were then permeabilized and fixed using a Cytofix/Cytoperm Fixation/Permeabilization Solution Kit (BD Biosciences), followed by analysis with a Fortessa X-20 flow cytometer. Intracellular flow cytometric analysis of Mertk was performed similarly except that GolgiPlug was not added. Data was analyzed by using Flowjo V10 software (Tree Star, Ashland, OR, USA).
(§5) To further explore how Cbl-b regulates the functions of primary human NK cells, we performed RNA-seq analyses using enriched primary NK cells from healthy donors transduced with Cbl-b siRNA or Scr siRNA without or with IL-15 treatment for 16 h (n=4 in each group). […] The intracellular results were supported by assessment IFN-γ secretion into the supernatant, in that IL-15-activated primary human NK cells transduced with Cbl-b siRNA expressed 10-fold higher levels of IFN-γ compared to NK cells transduced with Scr siRNA (FIG. 4D).

IFN-γ [5] = test: IFN-γ in supernatants by ELISA; type: cell-based, human; conditions: IL-15 (10 ng/ml) 24 h, n=7 donors
Procedure: as §4, §3, §5

Cc1cc(Nc2nc(N[C@@H](C)c3ncc(F)cn3)ncc2Cl)n[nH]1 [AZD1480]
expression of Cbl-b protein after inhibitor pretreatment (Cbl-b [1]; 90 min pretreatment at various concentrations, then IL-15 (10 ng/ml) 24 h, vs vehicle control): significant decrease | Cbl-b expression after inhibitor pretreatment under K562 stimulation (Cbl-b [2]): only the AKT1/2/3 inhibitor Afuresertib rather than either of the two JAK inhibitors

Cn1ncc(Cl)c1-c1cc(C(=O)N[C@H](CN)Cc2cccc(F)c2)sc1Cl [Afuresertib]
expression of Cbl-b protein after inhibitor pretreatment (Cbl-b [1]; 10 uM, 90 min pretreatment, then IL-15 (10 ng/ml) or IL-2 (150 IU/ml) 24 h): nearly identical results | Cbl-b expression after inhibitor pretreatment under K562 stimulation (Cbl-b [2]): significant downregulation

IL-18: Recombinant human IL-18 purchased from Miltenyi Biotec
expression of Cbl-b protein (ratio to β-actin) (Cbl-b [3]): no significant change

IL-21: Recombinant human IL-21 purchased from Miltenyi Biotec
expression of Cbl-b protein (ratio to β-actin) (Cbl-b [3]): no significant change

Scr siRNA: scrambled Accell siRNA control, SEQ ID NO:2, UGGUUUACAUGUUGUGUGA (Accell modifications, chemistry not fully specified) [reference compound]
concentration of granzyme B protein in supernatants (granzyme B; with IL-15 (10 ng/ml) 24 h, n=8 donors): 3397 pg/mL | concentration of granzyme B protein in supernatants (granzyme B; without IL-15, n=8 donors): 525.4 pg/mL | percentage of intracellular IFN-γ+ cells (IFN-γ [4]): 4.338% | IFN-γ concentration in supernatants (IFN-γ [5]): 882.5 pg/mL

B1: IL-12: Recombinant human IL-12 purchased from Miltenyi Biotec (protein, UniProt P29459 23-219; P29460 23-328, looked up)
Interleukin-12 subunit alpha: RNLPVATPDPGMFPCLHHSQNLLRAVSNMLQKARQTLEFYPCTSEEIDHEDITKDKTSTVEACLPLELTKNESCLNSRETSFITNGSCLASRKTSFMMALCLSSIYEDLKMYQVEFKTMNAKLLMDPKRQIFLDQNMLAVIDELMQALNFNSETVPQKSSLEEPDFYKTKIKLCILLHAFRIRAVTIDRVMSYLNAS
Interleukin-12 subunit beta: IWELKKDVYVVELDWYPDAPGEMVVLTCDTPEEDGITWTLDQSSEVLGSGKTLTIQVKEFGDAGQYTCHKGGEVLSHSLLLLHKKEDGIWSTDILKDQKEPKNKTFLRCEAKNYSGRFTCWWLTTISTDLTFSVKSSRGSSDPQGVTCGAATLSAERVRGDNKEYEYSVECQEDSACPAAEESLPIEVMVDAVHKLKYENYTSSFFIRDIIKPDPPKNLQLKPLKNSRQVEVSWEYPDTWSTPHSYFSLTFCVQVQGKSKREKKDRVFTDKTSATVICRKNASISVRAQDRYYSSSWSEWASVPCS
expression of Cbl-b protein (ratio to β-actin) (Cbl-b [3]): no significant change

B2: IL-7: Recombinant human IL-7 purchased from Miltenyi Biotec (protein, UniProt P13232 26-177, looked up)
Interleukin-7: DCDIEGKDGKQYESVLMVSIDQLLDSMKEIGSNCLNNEFNFFKRHICDANKEGMFLFRAARKLRQFLKMNSTGDFDLHLLKVSEGTTILLNCTGQVKGRKPAALGEAQPTKSLEENKSLKEQKKLNDLCFLKRLLQEIKTCWNKILMGTKEH
expression of Cbl-b protein (ratio to β-actin) (Cbl-b [3]): no significant change

Source: patent US20240299542A1, “NATURAL KILLER CELLS ENGINEERED TO REDUCE OR ELIMINATE CBL-B AND USES THEREOF” (City of Hope, priority 2021, published 2024)
